Legend:
U87 glioblastoma cells = test: In vitro cytotoxicity, cell viability by SRB method; format: cell-based, human; conditions: CPT compared with CPT-K3
Protocol: FIG. 10A is a table providing the IC50 of CPT and CPT-K3. FIG. 10B is a plot of cell viability (%) vs. concentration;
FIG. 10A is a table providing the IC50 of CPT and CPT-K3. FIG. 10B is a plot of cell viability (%) vs. concentration. In this example, cell viability (%) was determined using the SRB method.

[1] = Solubility and stability of CPT-K3 in borate buffer precursor solution; format: physicochemical
Source text: Referring now to FIG. 3, CPT-K3 remains stable in a clear precursor solution.

Row | Compound | cytotoxicity against the U87 glioblastoma cell line (U87 glioblastoma cells) | stability in borate buffer (time stable) ([1]; 75-mM borate buffer) | solubility in borate buffer ([1]; borate buffer)
1 | CC[C@@]1(O)C(=O)OCc2c1cc1n(c2=O)Cc2cc3ccccc3nc2-1 [CPT, camptothecin, reference compound] | comparable cytotoxicity |  | 
2 | CC[C@@]1(OC(=O)CCC(=O)N[C@@H](CCCCN)C(=O)N[C@@H](CCCCN)C(=O)N[C@@H](CCCCN)C(=O)O)C(=O)OCc2c1cc1n(c2=O)Cc2cc3ccccc3nc2-1 [CPT-K3] | comparable cytotoxicity | at least 24 hours | good solubility

Source: patent publication US20250032627A1, “T[…] BASED UPON DRUG CONJUGATES” (priority 2023, published 2025)
